Reference: PubChem BioAssay (NCI)
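Following 48 hours of exposure in 96-well plates, responses at five concentrations were used to interpolate endpoints linearly. GI50 is the concentration that inhibits growth by half. Definition used: TGI = concentration required for complete inhibition of growth.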

What was measured:
Assay in all cases: NCI-60 cell line screen, 48 h
[1] = test system: HL-60(TB) leukemia
[2] = test system: HOP-62 NSCLC
[3] = test system: MALME-3M melanoma
[4] = test system: HCC-2998 colon
[5] = test system: SF-295 CNS
[6] = test system: UO-31 renal
[7] = test system: UACC-257 melanoma
[8] = test system: OVCAR-4 ovarian
[9] = test system: UACC-62 melanoma
[10] = test system: RPMI-8226 leukemia
[11] = test system: HCT-116 colon
[12] = test system: SK-MEL-28 melanoma
[13] = test system: EKVX NSCLC
[14] = test system: PC-3 prostate

With `C=CCCCCCCCCC(=O)O` the TGI [1] was 231 µM, the TGI [2] was 168 µM and the TGI [3] was 302 µM. For the same compound, the TGI [4] was 202 µM, the TGI [5] was 200 µM and the TGI [6] was 162 µM. For the same compound, the TGI [7] was 492 µM, the TGI [8] was 341 µM and the TGI [9] was 190 µM. For the same compound, the TGI [10] was 352 µM, the TGI [11] was 225 µM and the TGI [12] was 322 µM. The TGI [13] was 255 µM.

For `CCCNC(=O)N(C)C(=O)N1N=C(c2ccccc2)C1c1ccccc1` (stereo not drawn), the TGI [2] was > 100 µM, the TGI [3] was > 100 µM and the TGI [4] was > 100 µM. For the same compound, the TGI [5] was > 100 µM, the TGI [6] was > 100 µM and the TGI [7] was > 100 µM. The TGI [8] was > 100 µM, the TGI [9] was > 100 µM and the TGI [10] was > 100 µM. The TGI [11] was > 100 µM, the TGI [12] was > 100 µM and the TGI [13] was > 100 µM. The TGI [14] was > 100 µM.

In the case of `O=c1c2c(c1=O)-c1ccccc1CN2`, the TGI [1] is reported as > 100 µM, the TGI [2] is reported as > 100 µM and the TGI [3] is reported as > 100 µM. For the same compound, the TGI [4] was > 100 µM, the TGI [6] was > 100 µM and the TGI [7] was > 100 µM. For the same compound, the TGI [8] was > 100 µM, the TGI [9] was > 100 µM and the TGI [10] was > 100 µM. The TGI [11] was > 100 µM, the TGI [12] was > 100 µM and the TGI [13] was > 100 µM.

`Cc1ccc(-c2cc(-c3ccco3)c(C#N)c(=O)n2C2OC(CO)C(O)C(O)C2O)cc1` (stereo not drawn) was tested, and the TGI [1] was > 100 µM, the TGI [2] was 91.4 µM and the TGI [3] was 78.2 µM. The TGI [4] was > 100 µM, the TGI [5] was > 100 µM and the TGI [6] was > 100 µM. The TGI [7] was > 100 µM, the TGI [8] was > 100 µM and the TGI [9] was > 100 µM. For the same compound, the TGI [10] was > 100 µM, the TGI [11] was > 100 µM and the TGI [12] was > 100 µM. The TGI [13] was > 100 µM.

`COc1ccc(-c2cc(=O)c3c(O)cc(O)cc3o2)c(OC)c1OC` was tested, and the TGI [1] was > 100 µM, the TGI [2] was > 100 µM and the TGI [3] was > 100 µM. The TGI [4] was > 100 µM, the TGI [5] was > 100 µM and the TGI [7] was > 100 µM. For the same compound, the TGI [8] was > 100 µM, the TGI [9] was > 100 µM and the TGI [10] was > 100 µM. For the same compound, the TGI [12] was > 100 µM and the TGI [13] was > 100 µM.

`CCOC(=O)C1(Br)S(=O)(=O)OCCOS1(=O)=O` was tested, and the TGI [1] was > 100 µM, the TGI [2] was > 100 µM and the TGI [3] was > 100 µM. For the same compound, the TGI [4] was > 100 µM, the TGI [5] was > 100 µM and the TGI [6] was > 100 µM. For the same compound, the TGI [7] was > 100 µM, the TGI [8] was > 100 µM and the TGI [9] was > 100 µM. The TGI [10] was > 100 µM, the TGI [11] was > 100 µM and the TGI [12] was > 100 µM. The TGI [13] was > 100 µM.

In the case of `O=c1c([OH2+])c(-c2ccc(O)cc2[O-])oc2cc(O)cc([O-])c12.O=c1c([OH2+])c(-c2ccc(O)cc2[O-])oc2cc(O)cc([O-])c12.[Ti+4]`, the TGI [1] is reported as > 100 µM, the TGI [2] is reported as > 100 µM and the TGI [3] is reported as > 100 µM. The TGI [5] was > 100 µM, the TGI [6] was > 100 µM and the TGI [7] was > 100 µM. The TGI [8] was > 100 µM, the GI50 [9] was > 100 µM and the TGI [9] was > 100 µM. For the same compound, the GI50 [10] was > 100 µM, the TGI [10] was > 100 µM and the TGI [11] was > 100 µM. For the same compound, the TGI [12] was > 100 µM and the TGI [13] was > 100 µM.

For `COC(=O)C1C=CCON2CCc3c(n(S(=O)(=O)c4ccccc4)c4ccccc34)C12` (stereo not drawn), the TGI [1] was > 67.2 µM, the TGI [2] was > 55.5 µM and the TGI [3] was > 100 µM. The TGI [4] was > 100 µM, the TGI [5] was > 100 µM and the TGI [6] was > 100 µM. For the same compound, the TGI [7] was > 90.3 µM, the TGI [8] was > 31.6 µM and the TGI [9] was > 62.5 µM. The TGI [10] was > 36 µM, the TGI [11] was > 80.7 µM and the TGI [12] was > 100 µM. For the same compound, the TGI [13] was > 84.8 µM.

For `CC1=C2C3OC(=O)C(C)C3CCC2(C)C=CC1=Nc1ccccc1` (stereo not drawn), the TGI [1] was > 100 µM, the TGI [2] was > 100 µM and the TGI [3] was > 100 µM. For the same compound, the TGI [4] was > 100 µM, the TGI [5] was > 100 µM and the TGI [6] was > 100 µM. For the same compound, the TGI [7] was > 100 µM, the TGI [8] was > 100 µM and the TGI [9] was > 100 µM. The TGI [11] was > 100 µM, the TGI [12] was > 100 µM and the TGI [13] was > 100 µM.

For `CC1=CCC2CC1NC(=O)CCOCCC(=O)NC2(C)C` (stereo not drawn), the TGI [4] was > 100 µM, the TGI [5] was > 100 µM and the TGI [6] was > 100 µM. For the same compound, the TGI [7] was > 100 µM, the TGI [8] was > 100 µM and the TGI [9] was > 100 µM. For the same compound, the TGI [10] was > 100 µM, the TGI [11] was > 100 µM and the TGI [12] was > 100 µM. The TGI [14] was > 100 µM.

In the case of `CCOC(=O)C(=O)NC12CC3CC(CC(C3)C1)C2`, the TGI [1] is reported as > 100 µM, the TGI [2] is reported as > 100 µM and the TGI [3] is reported as > 100 µM. The TGI [4] was > 100 µM, the TGI [5] was > 100 µM and the TGI [6] was > 100 µM. For the same compound, the TGI [7] was > 100 µM, the TGI [8] was > 100 µM and the TGI [9] was > 100 µM. For the same compound, the TGI [10] was > 100 µM, the TGI [11] was > 100 µM and the TGI [12] was > 100 µM. The TGI [13] was > 100 µM.

With `CCCN(CCC)C1=Nc2ccccc2-n2cnnc2C1` the TGI [1] was > 100 µM, the TGI [2] was > 100 µM and the TGI [3] was > 100 µM. The TGI [5] was > 100 µM, the TGI [6] was > 100 µM and the TGI [8] was > 100 µM. The TGI [9] was > 100 µM, the TGI [10] was > 100 µM and the TGI [11] was > 100 µM. For the same compound, the TGI [12] was > 100 µM and the TGI [13] was > 100 µM.

`C=C1Cc2cc(OC)c(OC)c(OC)c2-c2ccc(SC)c(=O)cc21` showed a TGI [2] of 7.8 µM, a TGI [3] of 2.57 µM and a TGI [4] of 0.402 µM. The TGI [5] was 4.12 µM, the TGI [6] was 6.96 µM and the TGI [7] was 7.62 µM. For the same compound, the TGI [8] was 18.9 µM, the TGI [10] was 14.7 µM and the TGI [12] was 7.88 µM. The TGI [13] was 18.8 µM.

`CN(C(=O)c1ccc(OCCCC(=O)O)c(Cl)c1Cl)C1CCCC1` was tested, and the TGI [1] was > 100 µM, the TGI [2] was > 100 µM and the TGI [3] was > 100 µM. The TGI [4] was > 100 µM, the TGI [5] was > 100 µM and the TGI [6] was > 100 µM. For the same compound, the TGI [7] was > 100 µM, the TGI [8] was > 100 µM and the TGI [9] was > 100 µM. For the same compound, the TGI [10] was > 100 µM, the TGI [11] was > 100 µM and the TGI [12] was > 100 µM. For the same compound, the TGI [13] was > 100 µM.

In the case of `COc1cc(C=O)cc(O)c1O`, the TGI [1] is reported as > 100 µM, the TGI [2] is reported as > 100 µM and the TGI [3] is reported as > 100 µM. For the same compound, the TGI [4] was > 100 µM, the TGI [5] was > 100 µM and the TGI [6] was > 100 µM. The TGI [7] was > 100 µM, the TGI [9] was > 100 µM and the TGI [10] was > 100 µM. For the same compound, the TGI [11] was > 100 µM, the TGI [12] was > 100 µM and the TGI [13] was > 100 µM.
